SMILES strings stand for the structures. Where “and” joins values, the source holds several entries; their conditions need not be identical. Identical values can stand only once. Like-named read-outs stand apart in the source and are kept apart here.

In this test the test system is human sebocytes. Nature of the test: Sebum suppression in secondary cultures of human sebocytes (14C-acetate label remaining in sebocytes). Conditions: for % of Control / activity at 1 µM / activity at 10 µM: human sebocytes; for activity at 1 µM / activity at 10 µM: Homo sapiens, read-out: % of Control; for sebum suppressive activity in the presence of a retinoid (combined with retinol): compared with compound alone, summary in words. The class given is cell-based. As for the experimental part:
Compounds A through G were tested for their potential to suppress sebum expression, alone or in the presence of a retinoid.
Secondary cultures of human sebocytes obtained from an adult […] were grown in 48-well tissue culture plates (Costar Corp.; Cambridge, Ma.) or 96-well tissue culture plates (Packard Co.; Meriden, Conn.) until confluent. Sebocyte growth medium consisted of Clonetics Keratinocyte Basal Medium (KBM) supplemented with 14 μg/ml bovine pituitary extract, 0.4 μg/ml hydrocortisone, 5 μg/ml insulin, 10 ng/ml epidermal growth factor, 1.2×10^-10 M cholera toxin, 100 units/ml penicillin, and 100 μg/ml streptomycin. All cultures were incubated at 37° C. in the presence of 7.5% CO2. Medium was changed three times per week.
On the day of experimentation, the growth medium was removed and the sebocytes washed three times with sterile Dulbecco's Modified Eagle Medium (DMEM; phenol red free). Fresh DMEM was added to each sample (duplicates, triplicates, or quadruplicates depending on the experiment) with 5 microliter of test agent solubilized in ethanol either alone or in the presence of one or 10 micromolar of retinol. Controls consisted of addition of ethanol alone, retinol alone, or phenol red, which has estrogen-like activity and is included as a positive control.
Each plate was returned to the incubator for 20 hours followed by the addition of 14C-acetate buffer (5 mM final concentration, 56 mCi/mmol specific activity). Sebocytes were returned to the incubator for four hours afterwhich each culture was rinsed three times with phosphate buffered saline to remove unbound label. Radioactive label remaining in the sebocytes was harvested and counted using a Beckman scintillation counter.

Where [1] appears, read: 10 μM test compound + 1 μM Retinol.
Where [2] appears, read: 10 μM test compound + 10 μM Retinol.
The mark [3] stands for this setting: 1 μM test compound + 1 μM Retinol.
[4] abbreviates: 1 μM test compound + 10 μM Retinol.
Where [5] appears, read: 1 μM test compound alone, 20 h + 4 h 14C-acetate.

In the case of `CCOC(=O)c1ccc(NC(=O)Nc2ccc(O)cc2)cc1` [Compound F], the “sebum suppressive activity in the presence of a retinoid (combined with retinol)” value is “improved sebum suppressive activity”. The “% of Control” value under setting [1] was 53.1% and 73.4%. For the same compound, the “% of Control” value under setting [2] is 63.4% and 40.4%. The “% of Control” value (10 μM test compound alone, 10 µM) was 72.0%. For the same compound, the activity at 1 µM under setting [3] worked out at 71%. Besides, the activity at 1 µM under setting [4] worked out at 76.2%. For the same compound, under setting [5], the activity at 1 µM is 84%. Besides, the activity at 10 µM (10 μM test compound alone) is 57.4%.

As for `CCOC(=O)c1ccc(NC(=O)Nc2cccc(C(C)O)c2)cc1` (centres unmarked) [Compound D], the “sebum suppressive activity in the presence of a retinoid (combined with retinol)” value is “improved sebum suppressive activity”. Moreover, the activity at 1 µM under setting [3] is 82.8%. For the same compound, the activity at 1 µM under setting [4] worked out at 78%. Besides, the activity at 1 µM under setting [5] came to 82.4%. In addition, the activity at 10 µM under setting [1] came out at 66.8%. The activity at 10 µM under setting [2] was 25%. Besides, the activity at 10 µM (10 μM test compound alone) turned out to be 58.5%.

For the compound `CC1=C(/C=C/C(C)=C/C=C/C(C)=C/CO)C(C)(C)CCC1` [Retinol, retinol, reference compound], the “% of Control” value (1 μM Retinol alone) stood at 99.9%; the “% of Control” value (10 μM Retinol alone) is 103.7% and 100.9% and 100.1%. In addition, the sebum suppressive activity entry (substance alone, summary in words of Tables 1-12) was “inactive”.

`Cc1cccc(N2CCN(C(=O)CC3C=CC(CC(=O)N4CCN(c5cccc(C)c5)C(C)C4)C3)CC2C)c1` (centres unmarked) [G]: the “sebum suppressive activity in the presence of a retinoid (combined with retinol)” value is on record as “improved sebum suppressive activity”.

For `O=C(Nc1ccc(O)cc1)Nc1cccc(C(F)(F)F)c1` [Compound E], the “sebum suppressive activity in the presence of a retinoid (combined with retinol)” value is listed as “improved sebum suppressive activity”.

Source of the values: patent US6372795B1, “Cosmetic compositions containing substituted amide derivatives” (Unilever Home and Personal Care USA, A Division of Conopco, …, priority 2000, dated 2002).
